Among the data in ChEMBL document CHEMBL1148985, “27-norlanostane glycosides from the bulbs of Muscari paradoxum” (J Nat Prod, 2004) are IC50 and Activity values, retold here.

SMILES strings stand for the structures. pIC50: −log10 of the molar value. Active and inactive are the calls of the source. The calls are words filed in the database; no cut-off is given here.

For the first assay, the system named is HSC-2. The assay is described as follows: Cytotoxicity against human HSC2 cells assessed as cell viability after 24 hrs. It counts as functional, cell-based. As to conditions: HSC-2, 24 h.
As a reminder, the pIC50 is −log10 of the IC50, conventionally taken in molar units. On to `CCC(=O)[C@@H]1C[C@@H](C)[C@]2(CC(=O)[C@@]3(C)C4=C(CC[C@@]32C)[C@@]2(C)CC[C@H](O[C@@H]3O[C@H](CO[C@@H]5OC[C@H](O)[C@H](O)[C@H]5O[C@@H]5O[C@H](CO)[C@@H](O)[C@H](O)[C@H]5O[C@@H]5O[C@@H](C)[C@H](O)[C@@H](O)[C@H]5O)[C@@H](O)[C@H](O)[C@H]3O)[C@](C)(CO)[C@@H]2CC4)O1`, for which the pIC50 is 4.20.

For `CCC(=O)[C@@H]1C[C@@H](C)[C@]2(CC[C@@]3(C)C4=C(CC[C@@]32C)[C@@]2(C)CC[C@H](O[C@@H]3O[C@H](CO[C@@H]5OC[C@H](O)[C@H](O)[C@H]5O[C@@H]5O[C@H](CO)[C@@H](O)[C@H](O)[C@H]5O[C@@H]5O[C@@H](C)[C@H](O)[C@@H](O)[C@H]5O)[C@@H](O)[C@H](O)[C@H]3O)[C@](C)(CO)[C@@H]2CC4)O1`, the pIC50 was 4.49.

With `CCC(=O)[C@@H]1C[C@@H](C)[C@]2(CC[C@@]3(C)C4=C(CC[C@@]32C)[C@@]2(C)CC[C@H](O[C@@H]3O[C@H](CO[C@@H]5OC[C@H](O)[C@H](O)[C@H]5O[C@@H]5O[C@H](CO)[C@@H](O)[C@H](O[C@@H]6OC[C@H](O)[C@H](O)[C@H]6O[C@@H]6OC[C@@H](O)[C@H](O)[C@H]6O)[C@H]5O[C@@H]5O[C@@H](C)[C@H](O)[C@@H](O)[C@H]5O)[C@@H](O)[C@H](O)[C@H]3O)[C@](C)(CO)[C@@H]2CC4)O1`, the negative logarithm of the IC50 (pIC50) was 5.14.

Take `CCC(=O)[C@@H]1C[C@@H](C)[C@]2(CC(=O)[C@@]3(C)C4=C(CC[C@@]32C)[C@@]2(C)CC[C@H](O[C@@H]3O[C@H](CO[C@@H]5OC[C@H](O)[C@H](O)[C@H]5O[C@@H]5O[C@H](CO)[C@@H](O)[C@H](O)[C@H]5O[C@@H]5OC[C@](O)(CO)[C@H]5O)[C@@H](O)[C@H](O)[C@H]3O)[C@](C)(CO)[C@@H]2CC4)O1`: the pIC50 is 5.21.

On to `CCC(=O)[C@@H]1C[C@@H](C)[C@]2(CC(=O)[C@@]3(C)C4=C(CC[C@@]32C)[C@@]2(C)CC[C@H](O[C@@H]3O[C@H](CO[C@@H]5OC[C@H](O)[C@H](O)[C@H]5O[C@@H]5O[C@H](CO)[C@@H](O)[C@H](O[C@@H]6OC[C@H](O)[C@H](O)[C@H]6O[C@@H]6OC[C@@H](O)[C@H](O)[C@H]6O)[C@H]5O[C@@H]5O[C@@H](C)[C@H](O)[C@@H](O)[C@H]5O)[C@@H](O)[C@H](O)[C@H]3O)[C@](C)(CO)[C@@H]2CC4)O1`, for which the negative logarithm of the IC50 (pIC50) is 4.72.

The next assay has as its system HSC-2. Kind of assay: Cytotoxicity against human HSC2 cells assessed as cell viability up to 100 uM after 24 hrs. It counts as functional, cell-based.
Conditions: not given
For the compound `CCC(=O)[C@H]1C[C@@H](C)[C@]2(CC(=O)[C@@]3(C)C4=C(CC[C@@]32C)[C@@]2(C)CC[C@H](O[C@@H]3O[C@H](CO[C@@H]5OC[C@H](O)[C@H](O)[C@H]5O[C@@H]5O[C@H](CO)[C@@H](O)[C@H](O[C@@H]6OC[C@H](O)[C@H](O)[C@H]6O[C@@H]6OC[C@@H](O)[C@H](O)[C@H]6O)[C@H]5O[C@@H]5O[C@@H](C)[C@H](O)[C@@H](O)[C@H]5O)[C@@H](O)[C@H](O)[C@H]3O)[C@](C)(CO)[C@@H]2CC4)O1`, the result was inactive.

As to `CCC(=O)[C@H]1C[C@@H](C)[C@]2(CC(=O)[C@@]3(C)C4=C(CC[C@@]32C)[C@@]2(C)CC[C@H](O[C@@H]3O[C@H](CO[C@@H]5OC[C@H](O)[C@H](O)[C@H]5O[C@@H]5O[C@H](CO)[C@@H](O)[C@H](O)[C@H]5O[C@@H]5OC[C@](O)(CO)[C@H]5O)[C@@H](O)[C@H](O)[C@H]3O)[C@](C)(CO)[C@@H]2CC4)O1`, the outcome was inactive.

On to `CCC(=O)[C@H]1C[C@@H](C)[C@]2(CC(=O)[C@@]3(C)C4=C(CC[C@@]32C)[C@@]2(C)CC[C@H](O[C@@H]3O[C@H](CO[C@@H]5OC[C@H](O)[C@H](O)[C@H]5O[C@@H]5O[C@H](CO)[C@@H](O)[C@H](O)[C@H]5O[C@@H]5O[C@@H](C)[C@H](O)[C@@H](O)[C@H]5O)[C@@H](O)[C@H](O)[C@H]3O)[C@](C)(CO)[C@@H]2CC4)O1`, for which the result was inactive.
